The values below come from ChEMBL document CHEMBL3046180, “Antifungal activity of some diaryl ethers” (2007).

The subject of assay [1] is Alternaria brassicae. The experiment in a line: Growth inhibition of Alternaria brassicae at 50 ug/ml after 4 days by poisoned food technique. It counts as functional. The note with it: 96 h, read-out: GI.
The subject of assay [2] is Alternaria alternata. The experiment in a line: Growth inhibition of Alternaria alternata at 50 ug/ml after 4 days by poisoned food technique. It counts as functional. The conditions noted are these: 96 h, read-out: GI.
For assay [3], the system named is Bipolaris sorokiniana. The experiment in a line: Growth inhibition of Bipolaris sorokiniana at 50 ug/ml after 4 days by poisoned food technique. The format is functional. The conditions noted are these: 96 h, read-out: GI.
Assay [4] concerns Pyricularia oryzae. Description: Growth inhibition of Magnaporthe oryzae at 500 ug/ml after 4 days by poisoned food technique. The format is functional. The note with it: 96 h, read-out: GI.
Assay [5] has as its system Fusarium graminearum. The experiment in a line: Growth inhibition of Fusarium graminearum at 50 ug/ml after 4 days by poisoned food technique. The format is functional. The conditions noted are these: 96 h, read-out: GI.
The test system of assay [6] is Fusarium graminearum. The experiment in a line: Growth inhibition of Fusarium graminearum at 500 ug/ml after 4 days by poisoned food technique. The note with it: 96 h, read-out: GI. The format is functional.
Assay [7] relates to Bipolaris sorokiniana. The experiment in a line: Growth inhibition of Bipolaris sorokiniana at 500 ug/ml after 4 days by poisoned food technique. It counts as functional. The note with it: 96 h, read-out: GI.
Assay [8] relates to Fusarium oxysporum f. sp. cucumerinum. The experiment in a line: Growth inhibition of Fusarium oxysporum f. sp. cucumerinum at 50 ug/ml after 4 days by poisoned food technique. The format is functional. The conditions noted are these: 96 h, read-out: GI.
The test system of assay [9] is Alternaria brassicae. Description: Growth inhibition of Alternaria brassicae at 500 ug/ml after 4 days by poisoned food technique. The format is functional. The note with it: 96 h, read-out: GI.
Assay [10] relates to Fusarium oxysporum f. sp. vasinfectum. The experiment in a line: Growth inhibition of Fusarium oxysporum f. sp. vasinfectum at 50 ug/ml after 4 days by poisoned food technique. It counts as functional. The conditions noted are these: 96 h, read-out: GI.
Assay [11] has as its system Alternaria alternata. The experiment in a line: Growth inhibition of Alternaria alternata at 500 ug/ml after 4 days by poisoned food technique. It counts as functional. The note with it: 96 h, read-out: GI.
For assay [12], the system named is Fusarium oxysporum f. sp. vasinfectum. Description: Growth inhibition of Fusarium oxysporum f. sp. vasinfectum at 500 ug/ml after 4 days by poisoned food technique. The format is functional. The conditions noted are these: 96 h, read-out: GI.
The test system of assay [13] is Pyricularia oryzae. Description: Growth inhibition of Magnaporthe oryzae at 50 ug/ml after 4 days by poisoned food technique. The conditions noted are these: 96 h, read-out: GI. The format is functional.
Assay [14] has as its system Fusarium oxysporum f. sp. cucumerinum. Description: Growth inhibition of Fusarium oxysporum f. sp. cucumerinum at 500 ug/ml after 4 days by poisoned food technique. The format is functional. The conditions noted are these: 96 h, read-out: GI.
In assay [15] the test system is Fusarium graminearum. The experiment in a line: Antifungal activity against Fusarium graminearum assessed as mycelial growth inhibition at 250 to 500 ug/ml after 4 days by poisoned food technique. It counts as functional, organism-based.

Molecules are shown by their SMILES. The source made the active and inactive calls. The calls are words filed in the database; no cut-off is given here.

In the case of `O=[N+]([O-])c1ccccc1Oc1ccccc1`, the inhibition of growth at 50 µg/mL was 79% in the assay on Alternaria brassicae [1]; 62.2% in the assay on Alternaria alternata [2]; 95% in the assay on Bipolaris sorokiniana [3]; 64.9% in the assay with Fusarium graminearum [5]; 55.6% in [8]; 70.1% in assay [10]. Also, the inhibition of growth at 50 µg/mL in the assay with Pyricularia oryzae [13] worked out at 58%. The inhibition of growth at 500 µg/mL in the assay with Pyricularia oryzae [4] was found to be 92%; in the assay with Fusarium graminearum [6], 94%; with Bipolaris sorokiniana [7], 30.2%; in the assay with Alternaria brassicae [9], 87.9%; in the assay with Alternaria alternata [11] it was 95.3%; in assay [12], 70.9%. The inhibition of growth at 500 µg/mL in assay [14] is 65.3%. For the same compound, the “growth inhibition (GI)” value in the assay on Fusarium graminearum [15] is “Active”.
Turning to `CC(C)(C)c1ccc(Oc2ccc([N+](=O)[O-])cc2)cc1`, the inhibition of growth at 50 µg/mL was 32% in the assay on Alternaria brassicae [1]; 25.5% with Alternaria alternata [2]; 21.6% in the assay on Bipolaris sorokiniana [3]; 55.6% with Fusarium graminearum [5]; 3.6% in assay [8]; 14.1% in assay [10]. The inhibition of growth at 50 µg/mL in the assay with Pyricularia oryzae [13] was 32%. The inhibition of growth at 500 µg/mL with Pyricularia oryzae [4] amounted to 40.4%; in the assay with Fusarium graminearum [6] it was 56%; with Bipolaris sorokiniana [7], 23.5%; with Alternaria brassicae [9] it was 32%; with Alternaria alternata [11], 27.7%; in [12] it was 67.7%. Further, the inhibition of growth at 500 µg/mL in assay [14] came to 10.3%.
Regarding `O=[N+]([O-])c1ccc(Oc2ccccc2Cl)cc1`, the inhibition of growth at 50 µg/mL with Alternaria brassicae [1] worked out at 36%; with Alternaria alternata [2] it was 60.4%; in the assay on Bipolaris sorokiniana [3] it was 89.5%; with Fusarium graminearum [5] it was 79.5%; in [8], 38.8%; in assay [10], 47.5%. For the same compound, the inhibition of growth at 50 µg/mL with Pyricularia oryzae [13] was found to be 47.8%. The inhibition of growth at 500 µg/mL was 77.5% in the assay on Pyricularia oryzae [4]; 92.8% in the assay on Fusarium graminearum [6]; 66% in the assay with Bipolaris sorokiniana [7]; 65.3% in the assay on Alternaria brassicae [9]; 81.9% in the assay with Alternaria alternata [11]; 55.6% in [12]. Besides, the inhibition of growth at 500 µg/mL in [14] was found to be 75.5%.
